Source: PubChem BioAssay AID179 (DTP/NCI, 2004)
pEC50, pIC50: −log10 of the molar value. Activity calls are given as the source filed them.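 How the source made its calls: active means compounds giving half or more protection of infected cells from virus-caused growth loss, again on retest; inactive means the rest.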

Test system: CEM cells HIV-1 protection, formazan growth assay
Assay: NCI AIDS Antiviral Assay
Conditions: for pIC50: measured here: growth of uninfected CEM cells
In short: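 Human CEM cells, uninfected and HIV-1-infected, received five drug concentrations, and growth was read by soluble formazan assay. Compounds giving at least 50% protection were retested; reproducible 100% protection defined confirmed active.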

C=C1CC/C=C(/C(=O)O)CC[C@H]2[C@@H]1CC2(C)C
pEC50: < 3.70 | pIC50: 3.75

COc1ccc(-c2nnc(-c3c(C)n(C)n(-c4ccccc4)c3=O)o2)cc1
pEC50: < 3.70 | pIC50: < 3.70

O=c1oc2cc(O)ccc2c(O)c1Cc1c(O)c2ccc(O)cc2oc1=O
pEC50: < 3.70 | pIC50: 3.79

CN(C)C(N)=NC#N
pEC50: < 3.10 | pIC50: < 3.10

c1ccc2[nH]c(SSc3nc4ccccc4[nH]3)nc2c1
pEC50: < 3.97 | pIC50: 4.05

O=c1oc2cc(O)ccc2c(O)c1C(c1cccnc1)c1c(O)c2ccc(O)cc2oc1=O
outcome: inactive

CCCCCC=C(c1cc(Cl)c(OC)c(C(=O)OCCC)c1)c1cc(Cl)c(OC)c(C(=O)OCCC)c1
pEC50: < 4.91 | pIC50: < 4.91

Cc1ccc(C(=O)/C=C2/SS/C(=C/C(=O)c3ccc(C)cc3)S2)cc1
pEC50: < 3.70 | pIC50: < 3.70

Nc1nc2c(c(=O)[nH]1)NC(CO)CN2 (configuration not stated)
outcome: inactive

CC(C)N([PH2+]N(C(C)C)C(C)C)C(C)C.[C-]#[O+].[C-]#[O+].[C-]#[O+].[C-]#[O+].[C-]#[O+].[Mo]
pEC50: < 4.11 | pIC50: < 4.11

Cc1cc(C)c(-c2c(O)c(O)c(-c3ccccc3)c3ccccc23)c(C)c1
pEC50: < 3.70 | pIC50: 5.11

O=C(O)c1cccc(S(=O)(=O)NN2C(=O)CSC2c2ccccc2)c1 (configuration not stated)
pEC50: < 3.70 | pIC50: < 3.70

Cc1ccc([C@H]2CC(=O)C[C@H](c3ccc(C)cc3)C23C(=O)c2ccccc2C3=O)cc1
pEC50: < 3.70 | pIC50: < 3.70

O=C(Cc1ccccc1)NN1C(=O)/C(=C\c2cccc([N+](=O)[O-])c2)SC1=Nc1ccccc1
pEC50: < 4.25 | pIC50: < 4.25

N#Cc1ncn(-c2ccccc2)c1N
pEC50: < 3.70 | pIC50: < 3.70

Cc1ccc(NC(=O)C(=O)C2C(=O)C3=C(CC2(C)C)NC2C=CC=CC2S3)c(C)c1 (configuration not stated)
pEC50: < 3.93 | pIC50: < 3.93

CN(Cc1c(S)ccc2ccccc12)Cc1c(S)ccc2ccccc12
pEC50: < 4.00 | pIC50: 4.77

NC(N)=Nc1ccc2oc(=O)ccc2c1
pEC50: < 3.92 | pIC50: < 3.92

O=C1/C(=N\S(=O)(=O)c2ccccc2)C([n+]2ccc(Cc3ccccc3)cc2)=C([O-])c2ccccc21
pEC50: < 3.70 | pIC50: 5.58

CC1CCC(C(C)C)C(O[C@@H]2OC(=O)C[C@@H]2Sc2ccccc2)C1 (some centres not stated)
outcome: inactive

O=C(N/N=C/C=C/c1ccccc1)c1ccncc1
pEC50: < 3.70 | pIC50: 4.48

O=C(O)c1cc(N=Nc2ccc(CCc3ccc(N=Nc4cc(C(=O)O)c(O)cc4O)cc3S(=O)(=O)O)c(S(=O)(=O)O)c2)c(O)cc1O
pEC50: 4.15 | pIC50: 3.87

O=C1C2Nc3ccccc3SC2C(=O)N1c1ccc(Br)cc1 (configuration not stated)
pEC50: < 4.72 | pIC50: < 4.72

COC(=O)/C(C#N)=C1\CCc2ccccc21
pEC50: < 2.93 | pIC50: < 2.93

COc1c(O)cc2oc(-c3ccc(O)cc3)cc(=O)c2c1O
pEC50: < 3.83 | pIC50: 4.45

CCS1=C2C(=O)CC(C)(C)CC2=Nc2ccccc21 (configuration not stated)
pEC50: < 3.70 | pIC50: < 3.70

CC1=NNC(=O)C1N=Nc1c(C)n(C)n(-c2ccccc2)c1=O (configuration not stated)
pEC50: < 3.70 | pIC50: 4.78

CC(CN1CCCC1)C(O)(Cc1ccccc1)c1ccc(Cl)cc1 (configuration not stated)
pEC50: < 3.70 | pIC50: 4.51

COCCCNC(=O)CC(=O)NCCCOC
pEC50: < 3.00 | pIC50: < 3.00

CCOP(=O)(OCC)C1CC(O)CN1OC(=O)C(C)(C)C (configuration not stated)
pEC50: < 3.70 | pIC50: < 3.70

CC(CNC(=O)c1ccccc1)(CNC(=O)c1ccccc1)[N+](=O)[O-]
outcome: inactive

O=C(c1ccc(OC(=O)c2ccccc2O)cc1)c1ccc(OC(=O)c2ccccc2O)cc1
outcome: inactive

CCCCC1OC2O[C@]3(C)CCC4C(C)CCC([C@H]1C)C24OO3 (some centres not stated)
pEC50: < 4.02 | pIC50: 4.65

CCOC(=O)c1ccc(C(=O)/C(C(=O)OC(C)(C)C)=C2\CCCN2C)n1C
pEC50: 4.05 | pIC50: 3.85

Cc1ccc(C(=O)CCC2C(=O)CC(C)(C)CC2=O)cc1
pEC50: < 4.04 | pIC50: 4.19

CCOC(=O)C(OCC1CC=CCC1)Sc1ccccc1 (configuration not stated)
pEC50: < 4.63 | pIC50: < 4.63

CCCCSC1CCSc2c1ccc1ccccc21 (configuration not stated)
outcome: inactive

COc1ccc(S(=O)(=O)N(C)c2ccccc2)cc1
pEC50: < 3.70 | pIC50: 5.11

C=C1C2CC[C@H]3C45C=NC[C@](C)(CCC4)[C@H]5CCC3(C2)[C@H]1O
outcome: inactive

COc1ccc([C@@H]2CC(=O)NCCCNCCCCNCCCN2)cc1
pEC50: < 3.70 | pIC50: 3.91

CNC(=O)OCCOc1ccccc1
pEC50: < 3.70 | pIC50: < 3.70

COc1ccc(NC(=O)C(/C=N\C(=S)NNC(C)=O)=C(\C)O)cc1
pEC50: < 3.70 | pIC50: < 3.70

O=C(Nc1ccc(Cl)cc1C(F)(F)F)C(=O)Nn1c(=S)[nH]c2ccccc2c1=O
pEC50: < 3.82 | pIC50: < 3.82

CC(=O)OC(OC(C)=O)c1ccc2ccc3cccc4ccc1c2c34
pEC50: < 3.70 | pIC50: 4.46

COc1cc2c(cc1OC)C(C1(O)CCCCC1)NCC2 (configuration not stated)
pEC50: < 3.07 | pIC50: 3.34

Cc1cc2c(c3ncccc13)OCN(Cc1ccc(Cl)cc1)C2
pEC50: < 3.70 | pIC50: 5.97

O=C1C=C[C@@]23CC1C(O)C[C@H]2C=Cc1ccccc13 (some centres not stated)
pEC50: < 3.99 | pIC50: < 3.99

O=C1Nc2nc(=O)nc3[nH]c(=O)nc(n23)N1
pEC50: < 3.60 | pIC50: < 3.60

CN(C)c1ccc(/C=C(\NC(=O)c2ccccc2)C(=O)Nc2ccccc2C(=O)O)cc1
pEC50: < 4.00 | pIC50: < 4.00

CC(C)N(CC(OC(=O)OC(C)(C)C)c1cc(OCc2ccccc2)c(OCc2ccccc2)cc1[N+](=O)[O-])C(=O)OC(C)(C)C (configuration not stated)
pEC50: < 4.00 | pIC50: 4.52

CCOC(=O)c1cc(Br)c(-c2cc(C)no2)[nH]1
pEC50: < 3.70 | pIC50: 5.83

CC(=O)c1c(C)n(C)c2c1nnc1ccccc12
pEC50: < 4.38 | pIC50: 4.52

Cc1ccc(C(=O)Nc2ccc(S(=O)(=O)[O-])c3cc(S(=O)(=O)[O-])cc(S(=O)(=O)[O-])c23)cc1NC(=O)c1cccc(NC(=O)Nc2cccc(C(=O)Nc3cc(C(=O)Nc4ccc(S(=O)(=O)[O-])c5cc(S(=O)(=O)[O-])cc(S(=O)(=O)[O-])c45)ccc3C)c2)c1.[Ga]
pEC50: < 3.12 | pIC50: 4.37

COc1ccccc1/C=C/C(=O)O
pEC50: < 3.28 | pIC50: < 3.28

N#Cc1snc2sc(=O)sc12
pEC50: < 3.95 | pIC50: 5.06

Cc1ccc(-c2c(C#N)c(-c3ccc([N+](=O)[O-])cc3)c(C#N)c(=O)n2NS(=O)(=O)c2ccccc2)cc1
pEC50: < 3.70 | pIC50: 4.78

CN1CCN(Cc2nc3c(s2)CCc2sccc2-3)CC1
pEC50: < 3.70 | pIC50: 4.24

C/C(=C\c1csc(C)n1)[C@@H]1C[C@@H]2O[C@]2(C)CCC[C@H](C)[C@H](O)[C@@H](C)C(=O)C(C)(C)[C@@H](O)CC(=O)O1 (tested in a mixture with another compound)
pEC50: < 7.70 | pIC50: 9.00

CCN(CC)CCOc1ccc(S(=O)(=O)c2ccc(OCCN(CC)CC)cc2)cc1
pEC50: < 3.70 | pIC50: 4.40

COc1ccc(C2c3cn[nH]c3CC3CCCCC32)cc1 (configuration not stated)
pEC50: < 3.70 | pIC50: 4.46

CN1c2ccccc2C2=C(C3=C(CS2)C(=O)CCS3)S1(=O)=O
pEC50: < 4.41 | pIC50: < 4.41

C1CSCCSCCS1
pEC50: < 4.40 | pIC50: < 4.40
